Reference: paper PMC4011845, “Stereoselectivity of Isoflurane in Adhesion Molecule Leukocyte Function-Associated Antigen-1” (PLoS ONE, 2014)

Experiments:
[1] = molecular target: T1, leukocyte function-associated antigen-1 (LFA-1) (Homo sapiens, UniProt P20701); assay: cell-free LFA-1:ICAM-1 binding assay ([…] 1-AMA); fluorescence probe on the αL I domain; format: biochemical
T1 construct: gene ITGAL; αL I domain residues 128-307 (fluorescence); with integrin β2 subunit (LFA-1 heterodimer)

[2] = molecular target: T2, leukocyte function-associated antigen-1 (LFA-1) αL I domain (Homo sapiens, UniProt P20701); assay: 1-aminoanthracene fluorescence displacement; supported by cell-based ICAM-1 binding inhibition
T2 construct: gene ITGAL; αL I domain wild type, residues 128-307 of the integrin αL subunit
T2 sequence (P20701 153-332): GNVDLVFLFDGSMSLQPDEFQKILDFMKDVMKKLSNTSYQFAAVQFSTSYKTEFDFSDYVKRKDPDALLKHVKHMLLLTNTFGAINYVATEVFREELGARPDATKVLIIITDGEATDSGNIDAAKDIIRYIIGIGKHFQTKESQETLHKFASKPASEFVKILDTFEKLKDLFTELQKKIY

T1 sequence (P20701 26-1090 limits assumed): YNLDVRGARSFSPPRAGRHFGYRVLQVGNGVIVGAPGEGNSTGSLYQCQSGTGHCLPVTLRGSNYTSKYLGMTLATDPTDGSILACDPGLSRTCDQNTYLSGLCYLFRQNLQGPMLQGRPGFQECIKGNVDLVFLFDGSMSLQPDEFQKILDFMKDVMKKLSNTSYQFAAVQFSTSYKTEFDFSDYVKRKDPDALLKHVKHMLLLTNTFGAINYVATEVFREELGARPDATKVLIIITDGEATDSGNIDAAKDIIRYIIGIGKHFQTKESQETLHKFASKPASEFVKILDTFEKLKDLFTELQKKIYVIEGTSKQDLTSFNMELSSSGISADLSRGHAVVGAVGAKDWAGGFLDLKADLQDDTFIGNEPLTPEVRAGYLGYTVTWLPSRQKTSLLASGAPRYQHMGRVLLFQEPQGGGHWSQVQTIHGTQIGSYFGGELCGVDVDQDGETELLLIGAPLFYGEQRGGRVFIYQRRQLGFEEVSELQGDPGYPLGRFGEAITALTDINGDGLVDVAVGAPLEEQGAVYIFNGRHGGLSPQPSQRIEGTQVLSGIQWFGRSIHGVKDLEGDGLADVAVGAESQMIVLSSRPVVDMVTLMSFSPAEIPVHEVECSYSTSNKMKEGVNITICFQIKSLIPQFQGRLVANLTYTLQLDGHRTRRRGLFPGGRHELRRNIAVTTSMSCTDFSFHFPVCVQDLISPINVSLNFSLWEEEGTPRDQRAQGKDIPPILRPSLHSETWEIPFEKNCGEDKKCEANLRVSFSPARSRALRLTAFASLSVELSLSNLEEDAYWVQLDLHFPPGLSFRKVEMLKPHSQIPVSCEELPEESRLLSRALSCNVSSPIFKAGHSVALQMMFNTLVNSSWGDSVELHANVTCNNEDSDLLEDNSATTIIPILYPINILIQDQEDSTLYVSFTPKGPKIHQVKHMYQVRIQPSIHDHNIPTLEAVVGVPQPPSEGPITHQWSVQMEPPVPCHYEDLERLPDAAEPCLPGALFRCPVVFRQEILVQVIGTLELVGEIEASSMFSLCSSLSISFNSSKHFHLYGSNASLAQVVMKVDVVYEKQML
T1 sequence (P05107 23-700 partner limits assumed): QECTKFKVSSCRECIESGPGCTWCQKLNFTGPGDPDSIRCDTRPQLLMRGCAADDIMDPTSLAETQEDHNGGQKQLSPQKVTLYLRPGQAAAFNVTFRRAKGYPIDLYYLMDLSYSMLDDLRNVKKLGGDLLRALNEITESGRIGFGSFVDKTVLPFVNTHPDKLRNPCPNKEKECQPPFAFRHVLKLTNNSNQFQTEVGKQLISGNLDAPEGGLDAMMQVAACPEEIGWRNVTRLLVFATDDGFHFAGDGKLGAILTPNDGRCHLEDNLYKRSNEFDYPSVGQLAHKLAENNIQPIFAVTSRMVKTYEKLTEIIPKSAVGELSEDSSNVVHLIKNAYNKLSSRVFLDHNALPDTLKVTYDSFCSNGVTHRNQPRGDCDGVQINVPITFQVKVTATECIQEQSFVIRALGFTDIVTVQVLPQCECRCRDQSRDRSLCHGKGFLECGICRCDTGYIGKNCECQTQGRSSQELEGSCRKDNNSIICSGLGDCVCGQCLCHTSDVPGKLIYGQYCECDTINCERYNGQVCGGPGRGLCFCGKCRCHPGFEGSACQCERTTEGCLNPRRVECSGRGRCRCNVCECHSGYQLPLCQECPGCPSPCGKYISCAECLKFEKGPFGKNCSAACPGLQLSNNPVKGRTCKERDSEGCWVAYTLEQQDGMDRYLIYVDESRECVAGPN

Compound	cell-free LFA-1:ICAM-1 binding assay (10-25 μM 1-AMA); fluorescence probe on the [1]	Kd [2] [µM]
Nc1cccc2cc3ccccc3cc12 [1-AMA, 1-aminoanthracene]	As shown in Figure 2A , 1-AMA inhibited the binding of LFA-1 to its ligand ICAM-1.	–
FC(F)OC(Cl)C(F)(F)F (centres unmarked) [S-isoflurane]	–	375
